Patent US20260138976A1 (Hoffmann-La Roche Inc., priority 2022, published 2026)

Tests used:
DGK α kinase = target: T1, DGK α kinase (Homo sapiens, UniProt P23743); test: DGKalpha kinase ADP Glo assay run by Reaction Biology Corp.; type: biochemical; conditions: 2 nM kinase, 50 µM ATP, 500 μM DLG, 10-dose duplicate
T1 construct: purchased Reaction Biology Corp. (contract assay service)
Protocol: (§1) DGK α and ζ kinases use ATP to phosphorylate the substrate 1,2-dilauroyl-sn-glycerol (DLG). ATP is converted to ADP as a result of this enzymatic reaction.
(§2) After the kinase reaction, an ATP-depletion reagent is added to terminate the kinase reaction and deplete any remaining ATP, leaving only ADP. Second, a detection reagent is added to simultaneously convert ADP to ATP and allow the newly synthesized ATP to be converted to light using a coupled luciferase/luciferin reaction.
(§3) DGK α and ζ kinase ADP Glo assays were ran by Reaction Biology Corp., 1 Great Valley Parkway, Suite 2, Malvern, 19355, PA, USA. Information provided by the service provider are the following: DGK α and ζ kinases were used at 2 nM final concentration. Reactions were carried out at 50 µM ATP. 500 μM of the substrate DLG (Dilauroyl-sn-glycerol) was used.

DGK ζ kinase = target: T2, DGK ζ kinase (Homo sapiens, UniProt Q13574); test: DGKzeta kinase ADP Glo assay run by Reaction Biology Corp.; type: biochemical; conditions: 2 nM kinase, 50 µM ATP, 500 μM DLG, 10-dose duplicate
T2 construct: purchased Reaction Biology Corp. (contract assay service)
T2 sequence (Q13574 whole entry): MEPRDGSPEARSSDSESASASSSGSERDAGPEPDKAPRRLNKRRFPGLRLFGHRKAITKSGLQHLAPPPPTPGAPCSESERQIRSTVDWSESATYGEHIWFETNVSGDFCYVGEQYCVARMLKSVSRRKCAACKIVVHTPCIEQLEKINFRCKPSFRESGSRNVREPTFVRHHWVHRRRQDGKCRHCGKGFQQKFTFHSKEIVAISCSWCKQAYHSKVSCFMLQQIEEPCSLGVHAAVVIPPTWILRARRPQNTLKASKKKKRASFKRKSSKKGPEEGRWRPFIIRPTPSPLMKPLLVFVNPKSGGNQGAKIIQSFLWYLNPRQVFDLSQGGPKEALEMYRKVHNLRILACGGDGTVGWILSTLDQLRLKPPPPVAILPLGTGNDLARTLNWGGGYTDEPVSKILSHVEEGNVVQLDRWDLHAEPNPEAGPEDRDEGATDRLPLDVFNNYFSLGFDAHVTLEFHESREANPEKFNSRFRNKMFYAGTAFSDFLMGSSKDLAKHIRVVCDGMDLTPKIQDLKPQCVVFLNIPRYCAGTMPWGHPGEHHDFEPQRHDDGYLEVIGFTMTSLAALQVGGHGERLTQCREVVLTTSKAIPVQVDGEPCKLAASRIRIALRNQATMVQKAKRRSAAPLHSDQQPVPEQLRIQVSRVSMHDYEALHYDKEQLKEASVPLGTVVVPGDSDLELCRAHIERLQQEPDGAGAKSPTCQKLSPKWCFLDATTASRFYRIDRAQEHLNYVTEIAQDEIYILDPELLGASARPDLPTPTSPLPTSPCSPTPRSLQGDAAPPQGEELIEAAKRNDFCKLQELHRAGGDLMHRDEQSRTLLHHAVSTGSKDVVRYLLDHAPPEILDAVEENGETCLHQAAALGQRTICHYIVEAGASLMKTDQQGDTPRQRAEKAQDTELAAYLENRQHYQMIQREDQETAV
Protocol: as §1, §2, §3

T1 sequence (P23743 whole entry): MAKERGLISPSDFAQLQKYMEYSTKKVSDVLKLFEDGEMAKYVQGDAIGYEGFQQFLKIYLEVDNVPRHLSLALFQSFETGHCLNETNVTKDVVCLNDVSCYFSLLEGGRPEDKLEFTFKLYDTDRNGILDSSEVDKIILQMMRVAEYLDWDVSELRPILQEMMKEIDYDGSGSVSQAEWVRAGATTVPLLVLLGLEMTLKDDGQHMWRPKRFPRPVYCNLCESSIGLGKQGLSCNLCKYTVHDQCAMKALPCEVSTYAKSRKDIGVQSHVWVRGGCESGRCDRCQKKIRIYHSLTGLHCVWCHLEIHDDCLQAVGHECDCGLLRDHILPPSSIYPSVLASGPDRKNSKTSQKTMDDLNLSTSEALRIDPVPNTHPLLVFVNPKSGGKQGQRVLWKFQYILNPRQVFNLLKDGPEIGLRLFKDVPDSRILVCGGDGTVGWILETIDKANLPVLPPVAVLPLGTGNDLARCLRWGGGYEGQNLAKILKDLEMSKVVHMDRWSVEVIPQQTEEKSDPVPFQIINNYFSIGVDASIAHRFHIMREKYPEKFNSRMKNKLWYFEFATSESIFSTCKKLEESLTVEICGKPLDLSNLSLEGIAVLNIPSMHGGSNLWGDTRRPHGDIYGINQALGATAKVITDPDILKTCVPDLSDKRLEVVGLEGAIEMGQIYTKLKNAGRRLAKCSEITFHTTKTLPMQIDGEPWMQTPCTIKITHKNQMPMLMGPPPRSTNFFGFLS

Structure (SMILES)	IC50 (DGK α kinase)	IC50 (DGK ζ kinase)
CC(C)(C)c1nnc(-c2ccc3c(c2)N(Cc2ccc(-c4nnc(C(F)(F)F)o4)cc2)C(=O)[C@@H](N)CS3(=O)=O)o1 [Example 24, (3R)-3-amino-7-(5-tert-butyl-1,3,4-oxadiazol-2-yl)-1,1-dioxo-5-[[4-[5-(trifluoromethyl)-1,3,4-oxadiazol-2-yl]phenyl]methyl]-2,3-dihydro-1λ^6,5-benzothiazepin-4-one]	0.282 µM	0.51 µM
CC(N)(c1nnc(-c2ccc3c(c2)N(Cc2ccc(-c4noc(C(F)(F)F)n4)cc2)C(=O)[C@@H](N)CS3(=O)=O)o1)C(F)(F)F (stereo partly drawn) [Example 32, (3R)-3-amino-7-[5-(1-amino-2,2,2-trifluoro-1-methyl-ethyl)-1,3,4-oxadiazol-2-yl]-1,1-dioxo-5-[[4-[5-(trifluoromethyl)-1,2,4-oxadiazol-3-yl]phenyl]methyl]-2,3-dihydro-1λ^6,5-benzothiazepin-4-one]	0.173 µM	0.128 µM
N[C@H]1CS(=O)(=O)c2ccc(-c3nnc(C4(C5CC5)CCCO4)o3)cc2N(Cc2ccc(-c3noc(C(F)(F)F)n3)cc2)C1=O (stereo partly drawn) [Example 36, (3R)-3-amino-7-[5-(2-cyclopropyl-tetrahydrofuran-2-yl)-1,3,4-oxadiazol-2-yl]-1,1-dioxo-5-[[4-[5-(trifluoromethyl)-1,2,4-oxadiazol-3-yl]phenyl]methyl]-2,3-dihydro-1λ^6,5-benzothiazepin-4-one]	0.0585 µM	0.0507 µM
N[C@H]1CS(=O)(=O)c2ccc(-c3nnc(C4(N)CCCCC4)o3)cc2N(Cc2ccc(-c3noc(C(F)(F)F)n3)cc2)C1=O [Example 39, (3R)-3-amino-7-[5-(1-aminocyclohexyl)-1,3,4-oxadiazol-2-yl]-1,1-dioxo-5-[[4-[5-(trifluoromethyl)-1,2,4-oxadiazol-3-yl]phenyl]methyl]-2,3-dihydro-1λ^6,5-benzothiazepin-4-one]	0.0946 µM	0.0564 µM
CC(C)(C#N)c1nnc(-c2cc3c(cc2F)S(=O)(=O)C[C@H](N)C(=O)N3Cc2ccc(-c3ccc(C(F)(F)F)cn3)cc2)o1 [Example 88, 2-[5-[(3R)-3-amino-8-fluoro-1,1,4-trioxo-5-[[4-[5-(trifluoromethyl)-2-pyridyl]phenyl]methyl]-2,3-dihydro-1λ^6,5-benzothiazepin-7-yl]-1,3,4-oxadiazol-2-yl]-2-methyl-propanenitrile]	0.0111 µM	0.0041 µM
CC(O)(c1nnc(-c2ccc3c(c2)N(Cc2ccc(-c4noc(C(F)(F)F)n4)cc2)C(=O)[C@@H](N)CS3(=O)=O)o1)C(F)(F)F (stereo partly drawn) [Example 96, (3R)-3-amino-1,1-dioxo-7-[5-(2,2,2-trifluoro-1-hydroxy-1-methyl-ethyl)-1,3,4-oxadiazol-2-yl]-5-[[4-[5-(trifluoromethyl)-1,2,4-oxadiazol-3-yl]phenyl]methyl]-2,3-dihydro-1λ^6,5-benzothiazepin-4-one]	0.0447 µM	0.107 µM
